Experimental data as given in article PMC3443238, “Synthesis and Antiangiogenic Activity of N-Alkylated Levamisole Derivatives” (PLoS ONE, 2012).
Structures can show the parent of a compound that is named as a salt.

Columns and labels:
[1] = molecular target: T1, bovine kidney tissue non-specific alkaline phosphatase (TNAP) (Bos taurus, UniProt P09487); test: Alkaline phosphatase assay (p-nitrophenyl phosphate), bovine kidney enzyme; format: biochemical
T1 construct: alkaline phosphatase (0.01 U/mL) from human placenta or bovine kidneys; from tissue; host or cells: bovine kidneys
T1 sequence (P09487 18-499 limits assumed): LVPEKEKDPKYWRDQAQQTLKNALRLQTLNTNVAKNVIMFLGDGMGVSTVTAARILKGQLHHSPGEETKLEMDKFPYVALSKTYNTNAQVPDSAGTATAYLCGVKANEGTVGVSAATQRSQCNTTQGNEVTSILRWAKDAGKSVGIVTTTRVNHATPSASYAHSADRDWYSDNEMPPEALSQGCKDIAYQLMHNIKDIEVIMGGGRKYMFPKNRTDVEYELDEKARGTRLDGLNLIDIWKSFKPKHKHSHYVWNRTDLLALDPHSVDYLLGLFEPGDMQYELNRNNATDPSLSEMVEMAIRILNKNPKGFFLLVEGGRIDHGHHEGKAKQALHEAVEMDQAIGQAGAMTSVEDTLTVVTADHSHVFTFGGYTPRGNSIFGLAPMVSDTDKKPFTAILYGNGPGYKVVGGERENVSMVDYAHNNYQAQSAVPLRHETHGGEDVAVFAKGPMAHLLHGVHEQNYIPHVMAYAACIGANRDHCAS
Procedure: (§1) The levamisole derivatives were diluted to 2.5, 5 and 10 mM in DMSO. Samples (10 µL) and 90 µL solution of alkaline phosphatase (0.01 U/mL) from human placenta or bovine kidneys diluted in substrate buffer were added to a 96-well microtiter plate and incubated for 35 minutes at room temperature. Hereafter, 100 µL p-nitrophenyl phosphate (2 mg/mL) were added, and the plate was read at 405 nm with background subtraction at 650 nm on a Versamax Elisa reader (Molecular Devices, Sunnyvale, CA, USA) after 24 and 35 min. Results were obtained as the mean of double determinations. The EC50 values were read from the curve at half maximal absorbance.

[2] = test system: human umbilical vein endothelial cells (HUVECs) in co-culture with normal human dermal fibroblasts (NHDF); test: in vitro angiogenesis assay, HUVEC-NHDF co-culture, CD31 immunostaining; format: cell-based; settings: 1 mM
Procedure: The antiangiogenic effects of the compounds were determined in a previously developed assay, designed to evaluate the growth and differentiation of human umbilical vein endothelial cells (HUVECs) in co-culture with normal human dermal fibroblasts (NHDF). […] The cluster morphology known from (S)-levamisole, was also observed for tetramisole (2) (Figure 5B and Table 1), p-bromolevamisole (3) (Figure 5C and Table 1), and N-methyllevamisoles (7a, b), with the latter mentioned showing a slightly more pronounced effect (Figure 5E and F, Figure 6 A–D, Table 1). […] Compound 4 (Figure 5D and Table 1), on the other hand, inhibited the capillary network formation to give small cords exclusively, which is reminiscent of the effect of suramin (5) (Figure 5N and Table 1), another well-known angiogenesis inhibitor [44], [51].
Co-culture cell assays were performed according to a method described previously, [44]. Briefly, 10^3 NHDFs were cultured in each well of a 96-well microtiter plate in NHDF standard medium (100 μL, FGM-2 Bullet kit) at 37°C in an atmosphere containing 5% CO2. After 3 days the medium was removed and 10^3 HUVECs were seeded onto the NHDF in TFSM2 medium (135 μL). The samples of the individual compounds were prepared by weight and dissolved in a concentration of […] in DMSO, PBS, or Milli-Q water followed by pH adjustment, and sterile filtration through 0.22 μm filters. Medium, buffer controls or test samples of 15 µL were added to each well containing the HUVEC–NHDF co-culture and were incubated for 3 days. Experiments were repeated 2–4 times with identical results.
HUVEC and fibroblasts were stained with a CD31 antibody according to the method previously described, [44]. Briefly, the cells were washed with PBS, fixed with ethanol, blocked with TTN buffer, incubated with mouse anti-human CD31 diluted 1∶250 in TTN buffer, washed in TTN buffer and incubated with alkaline phosphatase-conjugated goat anti-mouse IgG diluted 1∶1000 in TTN buffer. Bound antibody was subsequently visualised with BCIP/NBT and inspected in an Olympus IX70 microscope and photographed with an Olympus DP12 digital camera (Magnification: 40x). Image analysis was carried out using the program AnalySIS (Soft Imaging Systems, Münster, Germany).

tumor growth = settings: 12 mg/kg in nude mice; cited from earlier work
[3] = molecular target: T2, human placenta alkaline phosphatase (HPAP) (Homo sapiens, UniProt P05187); test: Alkaline phosphatase assay (p-nitrophenyl phosphate), human placenta enzyme; format: biochemical
T2 construct: alkaline phosphatase (0.01 U/mL) from human placenta or bovine kidneys; from tissue; host or cells: human placenta
T2 sequence (P05187 23-506 limits assumed): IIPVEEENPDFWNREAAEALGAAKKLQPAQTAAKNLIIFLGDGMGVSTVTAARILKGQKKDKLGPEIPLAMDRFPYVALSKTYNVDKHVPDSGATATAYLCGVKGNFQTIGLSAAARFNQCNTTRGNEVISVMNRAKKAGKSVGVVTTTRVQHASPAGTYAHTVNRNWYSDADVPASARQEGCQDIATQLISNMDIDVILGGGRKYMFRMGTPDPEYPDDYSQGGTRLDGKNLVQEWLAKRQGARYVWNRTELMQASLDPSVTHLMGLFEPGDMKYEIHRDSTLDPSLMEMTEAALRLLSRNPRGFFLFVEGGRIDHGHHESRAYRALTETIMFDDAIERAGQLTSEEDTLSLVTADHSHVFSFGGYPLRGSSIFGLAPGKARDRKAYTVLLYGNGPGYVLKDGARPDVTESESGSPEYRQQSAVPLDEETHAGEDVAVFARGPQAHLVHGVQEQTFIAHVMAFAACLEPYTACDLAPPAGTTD
Procedure: as §1

With `c1ccc([C@H]2CN3CCSC3=N2)cc1` [Compound 1, (S)-levamisole hydrochloride, reference compound] the IC50 [1] was 600 µM, the Grading [2] was “++ (clusters with area >4%)” and the Morphology [2] was “Clusters”. For the same compound, the “Area % (percent of the area covered by HUVEC as observed by CD31 staining)” value ([2]; medium control 10.2, DMSO 8.4) was 7.5%, the tumor growth inhibition (tumor growth) was “significant tumor growth inhibition” and the IC50 [3] was 1100 µM.
